From patent US20120083522A1, “MODULATION OF INFLAMMATORY RESPONSES BY FACTOR XI” (Isis Pharmaceuitcals, inc., priority 2009, published 2012)
In the oligonucleotide strings, read from the 5' end, every base follows the letter of its sugar. An asterisk marks phosphorothioate; unmarked linkages are phosphodiester. Other units and linkages are bracketed, terminal groups are in braces. A string of capitals states the bases alone. e = 2'-O-(2-methoxyethyl) (MOE); [5mC] = 5-methylcytosine; d = 2'-deoxy (DNA)

Legend:
Format in all cases: cell-based
human Factor XI mRNA [1] = test: Dose-dependent inhibition in HepG2 cells, electroporation (Example 4); details: 16 hours
In short: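 HepG2 cells electroporated with 0.7, 2.2, 6.7 or 20 μM antisense gapmer and harvested after ~16 h. Factor XI mRNA quantified by qRT-PCR (primer probe set RTS 2966), normalised to total RNA (RIBOGREEN). Reported as percent inhibition versus untreated control cells.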

human Factor XI mRNA [2] = test: Antisense inhibition in HepG2 cells by microwalk gapmers, 8,000 nM, electroporation (Example 14); details: HepG2 cells, 8,000 nM
In short: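 Percent reduction of Factor XI transcript, relative to untreated controls, by real-time PCR with RIBOGREEN normalisation. Readout taken about 24 h after electroporating HepG2 cells with 8,000 nM oligonucleotide. Gapmers are 5-10-5, 5-8-5 or 6-8-6 MOE wings, phosphorothioate backbone.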

human Factor XI mRNA [3] = test: Antisense inhibition in HepG2 cells by microwalk gapmers, 75 nM, lipofectin (Example 3); details: HepG2 cells, 75 nM
In short: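 HepG2 cells (10,000 per well) were transfected with 75 nM gapmer using lipofectin and treated for about 24 h. Factor XI mRNA was quantified by real-time PCR, normalized to RiboGreen total RNA and expressed as percent inhibition versus untreated controls.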

[4] = oligonucleotides targeted to nucleobases 1275 to 1318 of SEQ ID NO: 1

Substance | percent inhibition of Factor XI mRNA, relative to untreated control cells (human Factor XI mRNA [1]; 0.7 μM) [%] | percent inhibition of Factor XI mRNA, relative to untreated control cells (human Factor XI mRNA [1]; 2.2 μM) [%] | percent inhibition of Factor XI mRNA, relative to untreated control cells (human Factor XI mRNA [1]; 6.7 μM) [%] | percent inhibition of Factor XI mRNA, relative to untreated control cells (human Factor XI mRNA [1]; 20 μM) [%] | Percent inhibition of human Factor XI mRNA levels (human Factor XI mRNA [2]) [%] | % inhibition of human Factor XI mRNA levels (human Factor XI mRNA [3]; oligonucleotides targeted to nucleobases 1018 to 1042 of SEQ ID NO: 1) [%] | % inhibition of human Factor XI mRNA levels (human Factor XI mRNA [3]; [4]) [%]
416825 (antisense GCCCTTCATGTCTAGGTCCA; 5-10-5 gapmer, wing sugar chemistry not given here, further chemistry not given here) [compound 416825] | 27 | 74 | 92 | 98 | 90 | – | –
416838 (antisense GCAACCGGGATGATGAGTGC; 5-10-5 gapmer, wing sugar chemistry not given here, further chemistry not given here) [compound 416838] | 5 | 30 | 55 | 83 | – | 94 | –
416850 (antisense TGCACAGTTTCTGGCAGGCC; 5-10-5 gapmer, wing sugar chemistry not given here, further chemistry not given here) [compound 416850] | 14 | 25 | 81 | 91 | 91 | – | 93
416858 (antisense ACGGCATTGGTGCACAGTTT; 5-10-5 gapmer, wing sugar chemistry not given here, further chemistry not given here) [compound 416858] | 5 | 20 | 56 | 86 | 90 | – | 93
416864 (antisense GGCAGCGGACGGCATTGGTG; 5-10-5 gapmer, wing sugar chemistry not given here, further chemistry not given here) [compound 416864] | 32 | 65 | 78 | 90 | 88 | – | 93
416925 (antisense GGTGCACAGTTTCTGGCAGG; 3-14-3 chimeric gapmer, wing sugar chemistry not given here, further chemistry not given here) [compound 416925] | 0 | 40 | 76 | 80 | – | – | 98
416999 (antisense GCACAGTTTCTGGCAGGCCT; 2-13-5 gapmer, wing sugar chemistry not given here, further chemistry not given here) [compound 416999] | 20 | 42 | 77 | 88 | – | – | 92
417002 (antisense GGTGCACAGTTTCTGGCAGG; 2-13-5 gapmer, wing sugar chemistry not given here, further chemistry not given here) [compound 417002] | 32 | 38 | 82 | 91 | – | – | 92
417003 (antisense TGGTGCACAGTTTCTGGCAG; 2-13-5 gapmer, wing sugar chemistry not given here, further chemistry not given here) [compound 417003] | 0 | 34 | 75 | 89 | – | – | 89
445522 (antisense eG*e[5mC]*eA*e[5mC]*eA*dG*dT*dT*dT*d[5mC]*dT*dG*dG*e[5mC]*eA*eG*eG*e[5mC]) [compound 445522] | – | – | – | – | 91 | – | –
445531 (antisense eG*eG*e[5mC]*eA*eT*dT*dG*dG*dT*dG*d[5mC]*dA*d[5mC]*eA*eG*eT*eT*eT) [compound 445531] | – | – | – | – | 90 | – | –
